# Measured values published in patent US12595269B2, “Morpholine-like monoamine releasers” (Solvonis Therapeutics Ireland Holdings Limited, priority 2022, dated 2026).
# pEC50: −log10 of the molar value. Where two headings read alike, the source gives them in different places.
# Experiments:
# SERT (serotonin release) = target: T1, SERT (serotonin release) (Rattus norvegicus, UniProt P31652); test: Serotonin release filtration assay in rat cortex synaptosomes; type: cell-based; conditions: for EC50: rat cortex synaptosomes, % of release by 50 μM MDMA, read-out: SERT release pEC50 (converted)
# T1 construct: from tissue; host or cells: rat frontal cortex, crude synaptosomes
# T1 sequence (P31652 whole entry): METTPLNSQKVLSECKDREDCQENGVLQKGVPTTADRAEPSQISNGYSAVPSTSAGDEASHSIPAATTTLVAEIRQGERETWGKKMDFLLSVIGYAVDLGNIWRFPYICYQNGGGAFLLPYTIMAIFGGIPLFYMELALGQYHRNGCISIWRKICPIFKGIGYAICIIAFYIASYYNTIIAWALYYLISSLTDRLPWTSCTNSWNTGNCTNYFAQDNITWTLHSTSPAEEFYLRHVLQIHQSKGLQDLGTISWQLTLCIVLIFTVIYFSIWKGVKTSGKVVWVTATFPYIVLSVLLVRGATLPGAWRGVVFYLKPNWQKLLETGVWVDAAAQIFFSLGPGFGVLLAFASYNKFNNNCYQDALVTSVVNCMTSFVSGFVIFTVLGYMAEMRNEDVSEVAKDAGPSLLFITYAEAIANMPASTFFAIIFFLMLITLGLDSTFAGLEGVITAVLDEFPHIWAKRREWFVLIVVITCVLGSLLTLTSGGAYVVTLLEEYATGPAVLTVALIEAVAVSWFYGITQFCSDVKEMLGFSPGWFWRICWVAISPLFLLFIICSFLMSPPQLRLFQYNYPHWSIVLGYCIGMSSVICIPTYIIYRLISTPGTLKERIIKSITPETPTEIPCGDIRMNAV
# Procedure: Methods and Procedure—Release: The potency of the disclosed compounds for stimulating dopamine (DA) release was measured by an endpoint release filtration assay in a 96-well format using rat synaptosomes, essentially as described by Sandtner et al., Mol. Pharmacol., 2016; 89(1):165-75, and Baumann et al., Neuropsychopharmacol., 2013; 38:552-562, with some variations.
# One male rat was sacrificed and striatum/cortex regions were dissected over ice. The striatum portions were weighed and put in a glass tube for homogenization, containing ice-cold 0.32 M sucrose (dilution 1:24 w/v), while the frontal cortex tissue was diluted in ice-cold 0.32 M sucrose, 1:20 w/v. Tissues were homogenized and centrifuged for 10 mins at 1000×g. The two supernatants from striatum and cortex (crude synaptosomes) were retained on ice until use.
# Test compounds were then serially diluted 1:4 in neat DMSO as concentration-response curves (CRC) of 11 points. To each well of a 2-mL 96 deep-well plate (Whatman UNIPLATE 96 well) were added: 2 μL of CRC of test compounds or 2 μL of DMSO (no-release condition) or 2 μL of MDMA 10 mM solution (final 50 μM, for maximal release), followed by 200 μL/well of complete Krebs-phosphate buffer (126 mM NaCl, 2.4 mM KCl, 0.83 mM CaCl2, 0.8 mM MgCl2, 0.5 mM KH2PO4, 0.5 mM Na2SO4, 11.1 mM Glucose, 0.05 mM pargyline, 1 mg/mL ascorbic acid, freshly added, pH 7.4), containing 1 μM reserpine to block vesicular uptake of substrate. Desipramine (100 nM) and citalopram (100 nM) were also added to the release assay buffer in order to inhibit NET and SERT uptake, respectively. The final compound dilution, then, was 1:200 in 0.5% DMSO.
# The raw data (cpm) from residual radioactivity onto the filter were elaborated for the determination of pEC50/EC50 values. Specifically, the compound effect was expressed as the percent of maximal release obtained with 50 μM MDMA (100% release) in comparison to vehicle (0.5% DMSO, 0% release). Both MDMA and D-amphetamine in CRC were used as internal controls in each release experiment. In each plate, for both 0% and 100% of release, the signal window is monitored performing Z′ calculations using raw data of four replicates.
# Synaptosomes were then loaded with ^3H-5HT for 60 minutes at RT. After dispensing loaded synaptosomes onto a compound plate (200 μL/well), the release reaction proceeded for an additional 15 minutes. Stop by filtration, counting, and data elaboration were performed as described for DA release.
# [1] = Plasma protein binding by equilibrium dialysis, human plasma; type: in vitro ADME; conditions: pH 7.4
# Procedure: Methods and Procedure: This study was performed in agreement with the previously described procedures to assure data integrity and adherence to GLP standards. Plasma protein binding and blood tissue binding of test items (0.5 μM) was determined using biological samples from male Sprague Dawley (SD) rats and humans. […] Dexamethasone was used as a control for lung tissue binding. Various biological samples were spiked with test compounds according to the methods that follow.
# Preparation of plasma or blood samples: An appropriate amount of test compound was dissolved in DMSO to yield a 10 mM solution. Further dilutions, to obtain 50 μM working solutions (WS), were then prepared using 50% acetonitrile in Milli-Q water. These 100×WS were used to spike plasma or blood to obtain a final concentration of 0.5 μM. From this initial spiking solution, control samples (n=3), referred to as T=0, were immediately extracted and used to calculate the recovery of the test item.
# An equilibrium dialysis method was performed to determine protein binding in the various biological samples described herein. Materials were prepared and methods were in accordance with the following procedures. […]
# Dialysis buffer was prepared by dissolving Na2HPO4 8.69 g, KH2PO4 1.90 g, and NaCl 4.11 g in 1 L of MilliQ water, and adjusting the pH to 7.4 with H3PO4. […] In order to control the integrity of the membrane after the dialysis process, the presence of protein was assessed in the buffer compartment. […]
# Samples were analyzed in a LC-MS/MS system using an analytical method to monitor the compound to internal standard peak area ratios as representative of the compound concentrations. Alternatively, samples were analyzed by RapidFire.
# Protein binding in plasma, blood, brain, and lung tissue samples were determined with the following formula: Afu=Buffer/x, wherein “x” may be plasma, blood, brain, or lung, and “Afu” is the apparent fraction unbound, and the other variables refer to the analyte/internal standard ratio determined in their specific compartment (buffer, plasma, blood, brain homogenate, and lung homogenate); […]
Compound,EC50 (SERT (serotonin release)) [nM],"fraction unbound at 5 h, 0.5 µM [1]","pEC50 (SERT (serotonin release); serotonin release, read-out: EC50 to influence SER release)"
"Clc1ccc([C@]23CN[C@H](CO2)C3)cc1Cl (single isomer, unassigned) [516A]",18.2,,
"Clc1ccc([C@@]23CN[C@@H](CO2)C3)cc1Cl (single isomer, unassigned) [518A]",17,0.0143,
"Clc1ccc(C23CNC(CO2)C3)cc1Cl (stereo not shown) [522A, 1-(3,4-dichlorophenyl)-2-oxa-5-azabicyclo[2.2.1]heptane]",19.1,0.021,7.66
"CNC(C)Cc1ccc2c(c1)OCO2 (stereo not shown) [MDMA, reference compound]",,> 0.5,
